Data: US9173915B1, “Antioxidant eye drops” (priority 2014, dated 2015)
Like-named read-outs stand apart in the source and are kept apart here.

Tests used:
[1] = test system: lens oxidative stress after UV irradiation; experiment: UV-induced cataract model: lens GSH and 4-HNE after UV irradiation; assay type: in vivo, Sprague Dawley rats
Description: Exposure to UV irradiation is another major risk factor of cataractogenesis. UV-irradiation induces ROS, which results in a rapid loss of reduced lens gluthione (GSH), the major antioxidant in the lens, followed several weeks later by subsequent lens opacification. For this study, young female Sprague Dawley rats were divided into five equal groups. One group served as the non-irradiated control group, while the second group served as the untreated irradiated control group. The third group received topical Optixcare carbomer vehicle containing 3% JHX-4 (4-(5-hydroxypyrimidin-2-yl)-N,N-dimethyl-3,5-dioxopiperazine-1-sulfonamide (99% pure by HPLC), the fourth received the present antioxidant eye drops composition, prepared as described above and referred to as topical Optixcare EH, and the fifth group received 1 mL of the oral Ocu-GLO™ by gavage, as described above. Treatments began 3 days prior to irradiation and continued until termination of the experiment. Prior to irradiation, each rat was anesthetized by intraperitoneal (i.p.) injection of a mixture of 60 mg/kg of ketamine and 10 mg/kg of xylazine, and the right eye was dilated with 1% tropicamide ophthalmic solution. The contralateral eye was covered with an eye patch that was held in place with black tape. […] Protein levels in an aliquot of the supernatant were measured according to Bradford Assay. Another aliquot was deproteinized with equal volume of 20% TCA and the GSH levels in the deproteinized supernatants were measured at 412 nm according to the DTNB method.
To confirm that the reduced GSH levels after UV exposure were linked to increased levels of ROS, the lenticular levels of the oxidized membrane lipid 4-hydroxynonenol (4-HNE) were determined using a competitive ELISA in the remaining homogenate supernatants by using the OxiSelect HINE Adduct Competitive ELISA Assay Kit (Cell Biolabs, Inc., San Diego, Calif.) according to the manufacturer's instructions.

[2] = test system: neural retina oxidative stress / photoreceptor layer; experiment: Light-induced retinal degeneration in dark adapted rats; assay type: in vivo, Wistar rats
Description: In the neural retina of dark adapted rats, exposure to light also results in the generation of ROS, iron dysregulation, and the release of iron from ferritin. In this animal model of age-related macular degeneration (AMD), Wistar rats were either orally treated with diet containing 0.05% of the multifunctional antioxidant JHX-4 or topically treated b.i.d. with Optixcare EH, with treatment beginning at the onset of two weeks of dark adaption.
As previously described in detail by Randazzo et al. (PLoS One, 2011, 6(7), p. e21926), groups containing twelve 4-5-week-old male Wistar rats receiving either normal rat chow (untreated), normal rat chow and topically treated with Optixcare EH b.i.d., or oral diet containing 0.05% of the multifunctional antioxidant JHX-4 were dark adapted for two weeks. Rats from each group were then individually placed into acrylic, flat bottom rodent restraints (Plas-labs, Inc., Lansing Mich.) in a light box apparatus and exposed for three hours to 1000 1× of cool white fluorescent lights (Lights of America, Los Angeles, Calif.). An additional group of non-treated rats were also placed into the light box apparatus for three hours, but not exposed to light (non-light-damaged rats, NLD). Immediately following light exposure, 8 light-damaged (LD) rats from each group and 8 NLD rats were immediately euthanized and the neural retinas were carefully dissected from the enucleated eye and frozen on dry ice for subsequent analysis. Subsequently, the thawed retinas were homogenized in lysis buffer for ELISA determinations using 4-HNE-His Adduct and Nitrotyrosine ELISA Kits. Additional thawed retinas were homogenized in RIPA buffer containing Halt Protease and Phosphatase Inhibitor Cocktail for western blot analysis of thioredoxin (TRx) and thioredoxin reductase (TRxR) expression levels. Protein samples were separated by SDS-PAGE and transferred onto nitrocellulose membranes. After blocking the membrane with 5% dry milk in 0.1% TBS-T, the membranes were then incubated overnight at 4° C. with the primary antibodies anti-TRx (1:1000 dilution) or anti-TRxR (1:2000 dilution). Subsequently, after washing with TBS-T, the membranes were incubated with a HRP-conjugated secondary antibody for 1 hour. The protein bands were visualized by chemiluminescence and exposure to x-ray film. Finally, the membranes were re-probed with antibody against GAPDH as an internal control. All visualized protein levels were quantified using the NIH ImageJ program available online at rsbweb.nih.gov/ij/.
Therefore, topical administration of Optixcare EH to light-exposed dark-adapted rats was not anticipated to result in any significant protection of retinal oxidative stress compared to the oral administration of the multifunctional antioxidant JHX-4. […] ROS and free radicals generated by retinal exposure to acute excessive light are also mediated by the thioredoxin (TRx)/thioredoxin reductase (TRxR) defense system. Therefore, the expression levels of both TRx and TRxR in the neural retinas of these rats were also examined.
The reduction of oxidative stress by JHX-4 and Optixcare EH was confirmed by histological measurements of the photoreceptor layers. After light exposure as described above, select rats in each group were returned to the dark environment for 7 additional days. Each rat was then euthanized by carbon dioxide asphyxiation, and the dorsal ventral orientation of each eye was marked with a cautery tool. […]

human RPE19 cells = test system: human RPE19 cells; parameters: unit of the concentration uncertain; conditions: cited from earlier work
[3] = after 3 hours light exposure, ELISA

| SMILES | lenticular 4-HNE levels vs untreated rats exposed to UV irradiation (FIG. 4) ([1]; UV exposed lenses, competitive ELISA) | 4-HNE lens levels, UV exposed vs unexposed contralateral eyes ([1]; competitive ELISA) | lens GSH levels, UV irradiated eye vs unexposed contralateral lens (FIG. 3) ([1]; pretreated 3 days, two days after 15 minutes UV irradiation) | photoreceptor layer (outer nuclear layer thickness), histology ([2]; 7 days in the dark after light exposure) | 4-HNE-histidine adduct levels in the neural retina (FIG. 5A) [2, 3] | nitrotyrosine adduct levels in the neural retina (FIG. 5B) [2, 3] | expression of thioredoxin (TRx) in the neural retina (FIG. 6A) ([2]; light exposed rats, western blot) | expression of thioredoxin reductase (TRxR) in the neural retina (FIG. 6B) ([2]; light exposed rats, western blot, p<0.05) | reduction of in vitro proliferation of human RPE19 cells (human RPE19 cells; 50 (unit uncertain)) [%] | reduction of in vitro proliferation of human RPE19 cells (human RPE19 cells; 100 (unit uncertain)) [%] |
| --- | --- | --- | --- | --- | --- | --- | --- | --- | --- | --- |
| CN(C)S(=O)(=O)N1CC(=O)N(c2ncc(O)cn2)C(=O)C1 [JHX-4, 4-(5-hydroxypyrimidin-2-yl)-N,N-dimethyl-3,5-dioxopiperazine-1-sulfonamide] | significantly lower | statistically similar | not significantly lower | only slightly decreased | neither oxidative marker significantly increased | neither oxidative marker significantly increased | reduced | significantly lowered |  |  |
| Oc1ccc(C=Cc2cc(O)cc(O)c2)cc1 [resveratrol] |  |  |  |  |  |  |  |  | 10 | 25 |
